Publication PMC9920998, “Synthesis of Oleanolic Acid-Dithiocarbamate Conjugates and Evaluation of Their Broad-Spectrum Antitumor Activities” (Molecules, 2023)
pIC50: −log10 of the molar value.

Experiments:
Type in all cases: cell-based
[1] = system: Panc1 cells (human pancreatic cancer); experiment: MTT cytotoxicity assay, Panc1
Method: (§1) Having obtained a series of structurally diverse OA-dithiocarbamates, we next performed a systematic biological evaluation to examine whether introducing an extra dithiocarbamate group could improve antitumor activities. These compounds were evaluated by MTT assay against human pancreatic cancer (Panc1), human lung cancer (A549), human hepatoma cell (Hep3B), human hepatoma cell (Huh-7), human colon cancer (HT-29), and human cervical cancer (Hela) cells, with the widely used anticancer drugs fluorouracil, docetaxel, and cisplatin as positive controls (Table 2). […] Moreover, the cytotoxicities of compounds 3a-3t were also evaluated in human normal hepatocytes (LO2) to determine whether these compounds preferred killing tumor cells over normal cells.
(§2) The optical density at 490 nm of each well was measured using a microplate reader (Molecular devices corporation, Sunnyvale, CA. USA) to calculate the percent of cell viability. The inhibition rates were calculated using GraphPad Prism 7.0 software. The seven tested cell lines were obtained from the laboratory of Molecular Pharmacology, Department of Pharmacology, School of Pharmacy, Southwest Medical University.
(§3) The in vitro cytotoxic activities of the compounds were evaluated by MTT assay against Panc1, A549, Hep3B, Huh-7, HT-29, Hela, LO2. Cell lines were obtained from the Laboratory of Molecular Pharmacology, Southwest Medical University. Briefly, different tumor cells grew in DMEM medium except for A549, which used 1640 medium. Cells ((3–5) × 10^3 cells/well) were harvested at the log phase of growth and seeded in 96-well plates. After 24 h incubation at 37 °C in 5% CO2 to allow cell attachment, cultures were exposed to various concentrations of the isolated compounds for 48 h. Finally, the MTT solution was added. Plates were further incubated for 4 h at 37 °C after adding 150 µL/well of DMSO and shaking for 10 min on the shaker platform. The plates were read in a 96-well plate reader at 490 nm wavelength. The results were expressed as IC50 values, and were defined as the concentration at which 50% survival of cells was obtained. Fluorouracil, docetaxel, and cisplatin were co-assayed as positive controls.

[2] = system: A549 cells (human lung cancer); experiment: MTT cytotoxicity assay, A549; conditions: 48 h exposure
Method: as §1, §2, §3

[3] = system: LO2 cells (human normal hepatocytes); experiment: MTT cytotoxicity assay, LO2 normal cells
Method: as §1, §2, §3

[4] = system: Hep3B cells (human hepatoma cell); experiment: MTT cytotoxicity assay, Hep3B; conditions: 48 h exposure
Method: as §1, §2, §3

[5] = system: HT-29 cells (human colon cancer); experiment: MTT cytotoxicity assay, HT-29; conditions: HT-29, MTT, 48 h exposure
Method: as §1, §2, §3

[6] = system: Huh-7 cells (human hepatoma cell); experiment: MTT cytotoxicity assay, Huh-7; conditions: Huh-7, MTT, 48 h exposure
Method: as §1, §2, §3

[7] = system: Hela cells (human cervical cancer); experiment: MTT cytotoxicity assay, Hela; conditions: 48 h exposure
Method: as §1, §2, §3

[8] = Homo sapiens, PANC-1, 48 h exposure

Row | Compound | pIC50 [1, 8] | pIC50 ([2]; Homo sapiens) | pIC50 ([3]; L02, 48 h exposure) | pIC50 ([4]; Homo sapiens) | pIC50 ([5]; Homo sapiens) | pIC50 ([6]; Homo sapiens) | pIC50 ([7]; Homo sapiens) | pIC50 ([1]; 48 h exposure) | pIC50 [2] | pIC50 ([3]; 48 h exposure) | pIC50 [4] | pIC50 [5] | pIC50 [6] | pIC50 [7]
1 | CC(=O)O[C@@]12CO[C@@H]1C[C@H](O)[C@@]1(C)C(=O)[C@H](O)C3=C(C)[C@@H](OC(=O)[C@H](O)[C@@H](NC(=O)OC(C)(C)C)c4ccccc4)C[C@@](O)([C@@H](OC(=O)c4ccccc4)[C@H]21)C3(C)C [Docetaxel] | < 3.70 | < 3.70 | 3.85 | 3.76 | < 3.70 | 3.98 | 3.87 | – | – | – | – | – | – | –
2 | N.N.[Cl][Pt][Cl] [Cisplatin] | – | – | – | – | – | – | – | < 3.70 | < 3.70 | < 3.70 | < 3.70 | < 3.70 | < 3.70 | 3.85
3 | O=c1[nH]cc(F)c(=O)[nH]1 [5-fluorouracil] | 3.80 | 3.90 | 3.96 | 3.82 | 4.03 | 3.85 | 3.88 | – | – | – | – | – | – | –
4 | CC1(C)CC[C@]2(C(=O)OCCSC(=S)N3CCCC3)CC[C@]3(C)C(=CC[C@@H]4[C@@]5(C)CC[C@H](O)C(C)(C)[C@@H]5CC[C@]43C)[C@@H]2C1 [3a, [2-((pyrrolidine-1-carbonothioyl)thio)ethyl] 3-hydroxy-12-en-28-oic acid] | < 3.70 | 4.04 | 3.95 | < 3.70 | – | 3.84 | 4.05 | – | – | – | – | – | – | –
5 | CC1(C)CC[C@]2(C(=O)O)CC[C@]3(C)C(=CC[C@@H]4[C@@]5(C)CC[C@H](O)C(C)(C)[C@@H]5CC[C@]43C)[C@@H]2C1 [OA, oleanolic acid] | < 3.70 | < 3.70 | 3.85 | < 3.70 | < 3.70 | < 3.70 | < 3.70 | – | – | – | – | – | – | –
